Tests used:
Lck (h) = Lck (h) (Homo sapiens, UniProt P06239); test: Lck Human  Kinase Enzymatic Radiometric Assay; format: biochemical; conditions: read-out: Lck IC50 nM Range*
Outline: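 Substrate 33P-incorporation measured by scintillation counting after spotting on P30 filtermat and phosphoric acid washes. Human Lck reacted 40 min at RT in 50 mM Tris pH 7.5 with 10 mM MgAcetate, [gamma-33P]-ATP, 250 uM Cdc2 peptide, 0.1 mM EGTA and 0.1 mM Na3VO4.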

[1] = biological target: T1, Recombinant (1-346) HPK1 (h) (Homo sapiens, UniProt Q92918); test: HPK1 Human STE Kinase Enzymatic Radiometric Assay; format: biochemical; conditions: read-out: HPK1 IC50 nM Range*
T1 construct: Recombinant (1-346) HPK1 (h) is incubated with 8 mM MOPS pH 7.0
T1 sequence (Q92918 1-346): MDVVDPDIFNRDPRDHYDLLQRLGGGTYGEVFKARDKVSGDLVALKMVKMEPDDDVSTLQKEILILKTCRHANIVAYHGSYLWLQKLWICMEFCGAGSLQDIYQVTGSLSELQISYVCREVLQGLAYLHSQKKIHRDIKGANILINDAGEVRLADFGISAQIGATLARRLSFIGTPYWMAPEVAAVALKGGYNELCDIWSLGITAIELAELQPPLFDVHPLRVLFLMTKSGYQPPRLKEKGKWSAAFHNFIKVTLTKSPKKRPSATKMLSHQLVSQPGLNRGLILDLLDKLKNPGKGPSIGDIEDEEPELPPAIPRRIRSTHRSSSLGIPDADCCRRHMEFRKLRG
Description: A stock solution of 10 mM of test compound is prepared in DMSO. The compound plate was prepared by 3-fold and 9-point serial dilutions. […] The reaction is initiated by The addition of the Mg/ATP mix. After incubation for 40 minutes at RT, the reaction is stopped by the addition of phosphoric acid to a concentration of 0.5%.

Lck (h), sequence (P06239 whole entry): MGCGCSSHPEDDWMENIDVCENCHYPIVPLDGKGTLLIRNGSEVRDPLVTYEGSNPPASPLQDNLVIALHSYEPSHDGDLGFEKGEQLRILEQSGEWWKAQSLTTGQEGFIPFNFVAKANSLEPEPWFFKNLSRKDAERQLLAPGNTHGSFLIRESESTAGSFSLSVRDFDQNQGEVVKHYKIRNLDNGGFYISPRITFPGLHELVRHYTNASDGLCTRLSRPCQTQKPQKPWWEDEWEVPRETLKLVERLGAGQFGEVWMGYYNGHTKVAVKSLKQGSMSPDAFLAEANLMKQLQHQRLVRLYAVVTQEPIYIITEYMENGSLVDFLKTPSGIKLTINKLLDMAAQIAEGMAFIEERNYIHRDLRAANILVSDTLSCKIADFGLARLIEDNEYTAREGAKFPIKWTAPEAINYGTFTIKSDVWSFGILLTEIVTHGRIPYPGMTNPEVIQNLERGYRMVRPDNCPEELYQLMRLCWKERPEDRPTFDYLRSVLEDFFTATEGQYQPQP

| Structure (SMILES) | IC50 (Lck (h)) [nM] | IC50 [1] [nM] |
| --- | --- | --- |
| Nc1nc(F)c(-c2ccc(N3CCN4CCOC[C@H]4C3)cc2)cc1-c1ccc2c(c1)CCNC2=O [I-38, (R)-6-(2-amino-6-fluoro-5-(4-(hexahydropyrazino[2,1-c][1,4]oxazin-8(1H)-yl)phenyl)pyridin-3-yl)-3,4-dihydroisoquinolin-1(2H)-one] | > 1000 | 0.1 to 10 |
| Nc1nc(F)c(-c2ccc(N3CCN4CCOC[C@@H]4C3)cc2)cc1-c1ccc2c(c1)CCNC2=O [I-39, (S)-6-(2-amino-6-fluoro-5-(4-(hexahydropyrazino[2,1-c][1,4]oxazin-8(1H)-yl)phenyl)pyridin-3-yl)-3,4-dihydroisoquinolin-1(2H)-one] | > 1000 | 0.1 to 10 |
| CN1CCN(c2ccc(-c3cc(-c4ccc5c(c4)CCNC5=O)c(N)nc3F)cc2F)CC1 [I-40, 6-(2-amino-6-fluoro-5-(3-fluoro-4-(4-methylpiperazin-1-yl)phenyl)pyridin-3-yl)-3,4-dihydroisoquinolin-1(2H)-one] | > 1000 | 0.1 to 10 |
| CCN1CCN(c2ccc(-c3cc(-c4ccc5c(c4)CCNC5=O)c(N)nc3F)cc2)CC1 [I-41, 6-(2-amino-5-(4-(4-ethylpiperazin-1-yl)phenyl)-6-fluoropyridin-3-yl)-3,4-dihydroisoquinolin-1(2H)-one] | > 1000 | 0.1 to 10 |
| CC(C)N1CCN(c2ccc(-c3cc(-c4ccc5c(c4)CCNC5=O)c(N)nc3F)cc2)CC1 [I-42, 6-(2-amino-6-fluoro-5-(4-(4-isopropylpiperazin-1-yl)phenyl)pyridin-3-yl)-3,4-dihydroisoquinolin-1(2H)-one] | > 1000 | 0.1 to 10 |
| Nc1nc(F)c(-c2ccc(C3CCN(CC(F)F)CC3)cc2)cc1-c1ccc2c(c1)CCNC2=O [I-43, 6-(2-amino-5-(4-(1-(2,2-difluoroethyl)piperidin-4-yl)phenyl)-6-fluoropyridin-3-yl)-3,4-dihydroisoquinolin-1(2H)-one] | > 1000 | 0.1 to 10 |
| CN1CCC(Oc2ccc(-c3cc(-c4ccc5c(c4)CCNC5=O)c(N)nc3F)cc2)CC1 [I-44, 6-(2-amino-6-fluoro-5-(4-((1-methylpiperidin-4-yl)oxy)phenyl)pyridin-3-yl)-3,4-dihydroisoquinolin-1(2H)-one] | > 1000 | 0.1 to 10 |
| CN(C)CCN(C)c1ccc(-c2cc(-c3ccc4c(c3)CCNC4=O)c(N)nc2F)cc1 [I-45, 6-(2-amino-5-(4-((2-(dimethylamino)ethyl)(methyl)amino)phenyl)-6-fluoropyridin-3-yl)-3,4-dihydroisoquinolin-1(2H)-one] | > 1000 | 0.1 to 10 |
| C[C@@H]1CCCN1c1ccc(-c2cc(-c3ccc4c(c3)CCNC4=O)c(N)nc2F)cc1 [I-46, (R)-6-(2-amino-6-fluoro-5-(4-(2-methylpyrrolidin-1-yl)phenyl)pyridin-3-yl)-3,4-dihydroisoquinolin-1(2H)-one] | > 1000 | 11 to 100 |
| C[C@@H]1CCCN1c1ccc(-c2cc(-c3ccc4c(c3)CCNC4=O)c(N)nc2F)c(F)c1 [I-47, (R)-6-(2-amino-6-fluoro-5-(2-fluoro-4-(2-methylpyrrolidin-1-yl)phenyl)pyridin-3-yl)-3,4-dihydroisoquinolin-1(2H)-one] | > 1000 | 11 to 100 |
| CC(C)[C@@H]1CN(c2ccc(-c3cc(-c4ccc5c(c4)CCNC5=O)c(N)nc3F)cc2)CCN1C [I-48, (R)-6-(2-amino-6-fluoro-5-(4-(3-isopropyl-4-methylpiperazin-1-yl)phenyl)pyridin-3-yl)-3,4-dihydroisoquinolin-1(2H)-one] | > 1000 | 0.1 to 10 |
| CC(C)[C@@H]1CN(c2ccc(-c3cc(-c4ccc5c(c4)CCNC5=O)c(N)nc3F)c(F)c2)CCN1C [I-49, (R)-6-(2-amino-6-fluoro-5-(2-fluoro-4-(3-isopropyl-4-methylpiperazin-1-yl)phenyl)pyridin-3-yl)-3,4-dihydroisoquinolin-1(2H)-one] | > 1000 | 0.1 to 10 |
| CC(C)[C@H]1CN(c2ccc(-c3cc(-c4ccc5c(c4)CCNC5=O)c(N)nc3F)cc2)CCN1C [I-50, (S)-6-(2-amino-6-fluoro-5-(4-(3-isopropyl-4-methylpiperazin-1-yl)phenyl)pyridin-3-yl)-3,4-dihydroisoquinolin-1(2H)-one] | > 1000 | 0.1 to 10 |
| CC(C)[C@H]1CN(c2ccc(-c3cc(-c4ccc5c(c4)CCNC5=O)c(N)nc3F)c(F)c2)CCN1C [I-51, (S)-6-(2-amino-6-fluoro-5-(2-fluoro-4-(3-isopropyl-4-methylpiperazin-1-yl)phenyl)pyridin-3-yl)-3,4-dihydroisoquinolin-1(2H)-one] | > 1000 | 0.1 to 10 |
| CCN1CCCC(c2ccc(-c3cc(-c4ccc5c(c4)CCNC5=O)c(N)nc3F)cc2)C1 (centres unmarked) [I-52, 6-(2-amino-5-(4-(1-ethylpiperidin-3-yl)phenyl)-6-fluoropyridin-3-yl)-3,4-dihydroisoquinolin-1(2H)-one] | > 1000 | 0.1 to 10 |
| CCN1CCC(c2ccc(-c3cc(-c4ccc5c(c4)CCNC5=O)c(N)nc3F)cc2)CC1 [I-53, 6-(2-amino-5-(4-(1-ethylpiperidin-4-yl)phenyl)-6-fluoropyridin-3-yl)-3,4-dihydroisoquinolin-1(2H)-one] | > 1000 | 0.1 to 10 |
| CS(=O)(=O)N1CCC(Oc2ccc(-c3cc(-c4ccc5c(c4)CCNC5=O)c(N)nc3F)cc2)CC1 [I-54, 6-(2-amino-6-fluoro-5-(4-((1-(methylsulfonyl)piperidin-4-yl)oxy)phenyl)pyridin-3-yl)-3,4-dihydroisoquinolin-1(2H)-one] | > 1000 | 0.1 to 10 |
| Nc1nc(F)c(-c2cnn(C3CCOCC3)c2)cc1-c1ccc2c(c1)CCNC2=O [I-55, 6-(2-amino-6-fluoro-5-(1-(tetrahydro-2H-pyran-4-yl)-1H-pyrazol-4-yl)pyridin-3-yl)-3,4-dihydroisoquinolin-1(2H)-one] | > 1000 | 0.1 to 10 |
| CC(C)(C)OC(=O)N1CC=C(c2ccc(-c3cc(-c4ccc5c(c4)CCNC5=O)c(N)nc3F)cc2)CC1 [I-56, tert-butyl4-(4-(6-amino-2-fluoro-5-(1-oxo-1,2,3,4-tetrahydroisoquinolin-6-yl)pyridin-3-yl)phenyl)-3,6-dihydropyridine-1(2H)-carboxylate] | > 1000 | 11 to 100 |
| Nc1nc(F)c(-c2ccc(C3=CCNCC3)cc2)cc1-c1ccc2c(c1)CCNC2=O [I-57, 6-(2-amino-6-fluoro-5-(4-(1,2,3,6-tetrahydropyridin-4-yl)phenyl)pyridin-3-yl)-3,4-dihydroisoquinolin-1(2H)-one 2,2,2-trifluoroacetate] | > 1000 | 0.1 to 10 |
| CN1CCOc2cc(-c3cc(-c4ccc5c(c4)CCNC5=O)c(N)nc3F)ccc21 [I-58, 6-(2-amino-6-fluoro-5-(4-methyl-3,4-dihydro-2H-benzo[b][1,4]oxazin-7-yl)pyridin-3-yl)-3,4-dihydroisoquinolin-1(2H)-one] | > 1000 | 0.1 to 10 |
| Nc1nc(F)c(-c2ccc(N3CCCC3)cc2)cc1-c1ccc2c(c1)CCNC2=O [I-59, 6-(2-amino-6-fluoro-5-(4-(pyrrolidin-1-yl)phenyl)pyridin-3-yl)-3,4-dihydroisoquinolin-1(2H)-one] | > 1000 | 11 to 100 |
| CN1CCN(c2ccc(-c3cc(-c4ccc5c(c4)CCNC5=O)c(N)nc3F)c(Cl)c2)CC1 [I-61, 6-(2-amino-5-(2-chloro-4-(4-methylpiperazin-1-yl)phenyl)-6-fluoropyridin-3-yl)-3,4-dihydroisoquinolin-1(2H)-one] | > 1000 | 0.1 to 10 |
| CS(=O)(=O)c1ccc(-c2cc(-c3ccc4c(c3)CCNC4=O)c(N)nc2F)cc1 [I-62, 6-(2-amino-6-fluoro-5-(4-(methylsulfonyl)phenyl)pyridin-3-yl)-3,4-dihydroisoquinolin-1(2H)-one] | > 1000 | 0.1 to 10 |
| Nc1nc(F)c(-c2ccc(S(=O)(=O)C3CC3)cc2)cc1-c1ccc2c(c1)CCNC2=O [I-63, 6-(2-amino-5-(4-(cyclopropylsulfonyl)phenyl)-6-fluoropyridin-3-yl)-3,4-dihydroisoquinolin-1(2H)-one] | > 1000 | 0.1 to 10 |
| CN(C)S(=O)(=O)c1ccc(-c2cc(-c3ccc4c(c3)CCNC4=O)c(N)nc2F)cc1 [I-64, 4-(6-amino-2-fluoro-5-(1-oxo-1,2,3,4-tetrahydroisoquinolin-6-yl)pyridin-3-yl)-N,N-dimethylbenzenesulfonamide] | > 1000 | 0.1 to 10 |
| CCN(CC)S(=O)(=O)c1ccc(-c2cc(-c3ccc4c(c3)CCNC4=O)c(N)nc2F)cc1 [I-65, 4-(6-amino-2-fluoro-5-(1-oxo-1,2,3,4-tetrahydroisoquinolin-6-yl)pyridin-3-yl)-N,N-diethylbenzenesulfonamide] | > 1000 | 11 to 100 |
| Nc1nc(F)c(-c2ccc([C@@]34C[C@@H]3CN(C3CCOCC3)C4)cc2)cc1-c1ccc2c(c1)CCNC2=O [I-66, 6-(2-amino-6-fluoro-5-(4-((1R,5S)-3-(tetrahydro-2H-pyran-4-yl)-3-azabicyclo[3.1.0]hexan-1-yl)phenyl)pyridin-3-yl)-3,4-dihydroisoquinolin-1(2H)-one] | > 1000 | 0.1 to 10 |

Source: patent US20240343704A1, “HALO-SUBSTITUTED AMINO PYRIDINE COMPOUNDS AS INHIBITORS OF THE HAEMATOPOIETIC PROGENITOR KINASE 1 (HPK1)” (priority 2021, published 2024)
